From ChEMBL document CHEMBL3431459, “Roche carnitine palmitoyltransferase modulator screening data (supplementary data associated with the publication CHEMBL2216752)”
Converted amounts (≈) assume the structure as drawn.

Legend:
[1] = SUPPLEMENTARY: Lyophilisation Solubility Assay (LYSA); format: physicochemical; details: read-out: Kinetic_solubility
[2] = molecular target: T1, Carnitine O-palmitoyltransferase 2, mitochondrial (Homo sapiens, UniProt P23786); experiment: (§1) SUPPLEMENTARY: Inhibition of Carnitine palmitoyltransferase 2
T1 sequence (P23786 whole entry): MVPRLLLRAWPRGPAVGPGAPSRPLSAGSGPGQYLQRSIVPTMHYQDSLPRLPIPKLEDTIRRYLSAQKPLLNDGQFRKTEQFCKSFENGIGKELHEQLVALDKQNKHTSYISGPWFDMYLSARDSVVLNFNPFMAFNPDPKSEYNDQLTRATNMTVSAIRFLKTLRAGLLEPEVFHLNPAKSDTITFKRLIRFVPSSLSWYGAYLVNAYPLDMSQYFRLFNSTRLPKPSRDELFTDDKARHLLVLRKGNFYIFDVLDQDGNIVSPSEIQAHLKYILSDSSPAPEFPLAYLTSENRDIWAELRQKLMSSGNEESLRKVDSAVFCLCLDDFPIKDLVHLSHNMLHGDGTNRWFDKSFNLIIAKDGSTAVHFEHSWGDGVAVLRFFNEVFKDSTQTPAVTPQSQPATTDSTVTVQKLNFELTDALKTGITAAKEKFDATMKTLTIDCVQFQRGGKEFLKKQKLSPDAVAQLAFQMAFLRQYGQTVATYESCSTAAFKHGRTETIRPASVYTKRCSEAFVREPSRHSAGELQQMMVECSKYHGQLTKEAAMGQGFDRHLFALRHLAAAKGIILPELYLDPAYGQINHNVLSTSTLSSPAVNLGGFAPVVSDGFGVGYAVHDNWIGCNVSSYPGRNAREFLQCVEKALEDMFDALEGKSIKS

[3] = molecular target: T2, Carnitine O-palmitoyltransferase 2, mitochondrial (Rattus norvegicus, UniProt P18886); experiment: as §1
T2 sequence (P18886 whole entry): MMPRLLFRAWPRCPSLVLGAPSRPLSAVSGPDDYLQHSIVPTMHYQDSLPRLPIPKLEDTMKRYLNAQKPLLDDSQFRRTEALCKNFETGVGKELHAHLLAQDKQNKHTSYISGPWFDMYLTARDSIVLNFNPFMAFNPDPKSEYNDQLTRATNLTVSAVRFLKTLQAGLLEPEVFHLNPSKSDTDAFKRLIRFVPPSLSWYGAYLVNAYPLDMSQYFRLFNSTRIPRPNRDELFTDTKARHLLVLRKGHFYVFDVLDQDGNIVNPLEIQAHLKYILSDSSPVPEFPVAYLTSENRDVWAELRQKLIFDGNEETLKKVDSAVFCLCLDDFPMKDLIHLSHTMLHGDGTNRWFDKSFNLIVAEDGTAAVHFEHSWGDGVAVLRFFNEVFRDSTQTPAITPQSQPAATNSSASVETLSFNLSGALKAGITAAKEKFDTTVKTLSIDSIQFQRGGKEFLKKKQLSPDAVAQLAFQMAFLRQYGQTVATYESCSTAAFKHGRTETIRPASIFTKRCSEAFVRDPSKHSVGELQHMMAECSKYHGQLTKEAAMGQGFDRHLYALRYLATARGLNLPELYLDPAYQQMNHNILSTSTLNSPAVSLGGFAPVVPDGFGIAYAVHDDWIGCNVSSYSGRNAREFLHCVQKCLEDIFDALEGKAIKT

[4] = molecular target: T3, Carnitine O-palmitoyltransferase 1, liver isoform (Homo sapiens, UniProt P50416); experiment: (§2) SUPPLEMENTARY: Inhibition of Carnitine palmitoyltransferase 1, liver isoform
T3 sequence (P50416 whole entry): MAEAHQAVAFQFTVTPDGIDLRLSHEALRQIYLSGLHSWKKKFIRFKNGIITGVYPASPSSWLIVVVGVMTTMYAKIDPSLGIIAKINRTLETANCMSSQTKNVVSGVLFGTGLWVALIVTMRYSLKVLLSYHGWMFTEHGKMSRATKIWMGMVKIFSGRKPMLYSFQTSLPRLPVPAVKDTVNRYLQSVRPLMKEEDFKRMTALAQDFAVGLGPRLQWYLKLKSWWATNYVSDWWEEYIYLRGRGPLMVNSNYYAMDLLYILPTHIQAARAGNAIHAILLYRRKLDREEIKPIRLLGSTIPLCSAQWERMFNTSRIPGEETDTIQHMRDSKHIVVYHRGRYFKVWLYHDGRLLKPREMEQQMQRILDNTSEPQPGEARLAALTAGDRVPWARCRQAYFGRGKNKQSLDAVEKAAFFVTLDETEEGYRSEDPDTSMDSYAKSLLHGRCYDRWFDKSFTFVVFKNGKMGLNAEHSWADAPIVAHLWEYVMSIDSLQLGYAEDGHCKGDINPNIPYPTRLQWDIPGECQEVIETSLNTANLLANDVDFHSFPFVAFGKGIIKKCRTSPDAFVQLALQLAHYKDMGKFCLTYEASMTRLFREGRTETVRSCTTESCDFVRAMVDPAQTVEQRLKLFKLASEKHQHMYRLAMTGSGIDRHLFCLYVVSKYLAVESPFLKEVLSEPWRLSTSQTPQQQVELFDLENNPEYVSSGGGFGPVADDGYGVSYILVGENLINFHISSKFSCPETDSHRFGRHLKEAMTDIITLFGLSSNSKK

[5] = molecular target: T4, Carnitine O-palmitoyltransferase 1, liver isoform (Rattus norvegicus, UniProt P32198); experiment: as §2
T4 sequence (P32198 whole entry): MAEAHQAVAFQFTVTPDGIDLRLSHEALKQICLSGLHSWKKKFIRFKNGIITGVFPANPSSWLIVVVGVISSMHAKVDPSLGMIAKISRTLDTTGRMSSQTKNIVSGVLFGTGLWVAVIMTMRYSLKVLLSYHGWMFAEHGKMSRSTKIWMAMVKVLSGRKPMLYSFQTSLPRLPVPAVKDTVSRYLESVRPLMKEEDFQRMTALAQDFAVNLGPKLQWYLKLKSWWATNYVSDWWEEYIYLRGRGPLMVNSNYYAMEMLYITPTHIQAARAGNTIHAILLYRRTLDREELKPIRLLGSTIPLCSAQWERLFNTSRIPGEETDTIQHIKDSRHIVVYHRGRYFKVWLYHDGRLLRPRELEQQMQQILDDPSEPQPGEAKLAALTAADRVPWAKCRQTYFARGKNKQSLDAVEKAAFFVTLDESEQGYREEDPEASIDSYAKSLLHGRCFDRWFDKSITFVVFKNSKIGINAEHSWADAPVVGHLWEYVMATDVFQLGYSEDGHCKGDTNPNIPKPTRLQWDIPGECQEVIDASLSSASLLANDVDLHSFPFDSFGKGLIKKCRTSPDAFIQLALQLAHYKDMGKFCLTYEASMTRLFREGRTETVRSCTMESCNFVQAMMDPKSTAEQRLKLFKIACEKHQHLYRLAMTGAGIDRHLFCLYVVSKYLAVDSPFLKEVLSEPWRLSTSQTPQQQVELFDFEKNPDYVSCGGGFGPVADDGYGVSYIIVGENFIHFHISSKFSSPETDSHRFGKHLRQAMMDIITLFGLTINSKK

[6] = molecular target: T5, Carnitine O-palmitoyltransferase 1, muscle isoform (Homo sapiens, UniProt Q92523); experiment: SUPPLEMENTARY: Inhibition of Carnitine palmitoyltransferase 1, muscle isoform; parameters: species or system Muscle tissue
T5 sequence (Q92523 whole entry): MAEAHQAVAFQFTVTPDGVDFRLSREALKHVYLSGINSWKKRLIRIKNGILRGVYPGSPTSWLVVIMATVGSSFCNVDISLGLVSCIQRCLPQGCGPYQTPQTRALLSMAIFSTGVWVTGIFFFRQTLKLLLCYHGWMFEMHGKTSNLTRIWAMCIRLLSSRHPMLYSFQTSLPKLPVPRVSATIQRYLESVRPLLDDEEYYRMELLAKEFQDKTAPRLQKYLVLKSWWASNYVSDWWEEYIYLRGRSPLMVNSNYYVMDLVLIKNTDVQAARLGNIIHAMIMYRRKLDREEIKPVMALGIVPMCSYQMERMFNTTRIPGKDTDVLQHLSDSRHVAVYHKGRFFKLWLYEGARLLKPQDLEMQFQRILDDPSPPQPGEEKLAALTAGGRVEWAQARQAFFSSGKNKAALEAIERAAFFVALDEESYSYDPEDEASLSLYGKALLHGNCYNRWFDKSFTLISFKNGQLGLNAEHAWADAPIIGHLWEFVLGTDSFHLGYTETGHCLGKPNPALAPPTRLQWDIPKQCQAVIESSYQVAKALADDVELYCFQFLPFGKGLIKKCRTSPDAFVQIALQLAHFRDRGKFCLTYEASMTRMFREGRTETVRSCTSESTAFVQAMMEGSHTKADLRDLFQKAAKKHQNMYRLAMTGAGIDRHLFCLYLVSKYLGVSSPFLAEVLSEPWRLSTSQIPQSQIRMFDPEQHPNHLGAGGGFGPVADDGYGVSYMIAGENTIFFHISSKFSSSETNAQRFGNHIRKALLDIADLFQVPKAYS

[7] = SUPPLEMENTARY: Lipophilicity (log D) Determination by high-throughput shake-flask; format: physicochemical; details: octanol/water
[8] = SUPPLEMENTARY: PAMPA permeability assay; format: physicochemical; details: read-out: Permeability

solubility kinetic [1] | IC50 [2] | IC50 [3] | IC50 [4] | IC50 [5] | IC50 [6] | logD [7] | Papp [8] | SMILES
100 µg/mL (≈ 193 µM) | > 100 µM | > 100 µM | 0.187 µM | 0.483 µM | 3.28 µM | -0.23 | 1.39 ×10⁻⁶ cm/s | COc1ccc(Cl)cc1S(=O)(=O)N1COCc2ccc(C(=O)Nc3ccc(CC(=O)O)cc3)cc21
133 µg/mL (≈ 252 µM) | 38.6 µM | > 100 µM | 0.0151 µM | 0.0101 µM | 12 µM | 0.98 | 0.27 ×10⁻⁶ cm/s | COc1ccc(Cl)cc1S(=O)(=O)c1cn(CCCC(=O)O)c2ccc(C(=O)Nc3ccccc3)cc12
> 615 µg/mL | > 100 µM | > 100 µM | 0.0424 µM | 0.0319 µM | 0.797 µM | 0.5 | 3.17 ×10⁻⁶ cm/s | Cc1cc(C)cc(S(=O)(=O)N2CCOc3ccc(C(=O)Nc4nc(CC(=O)O)cs4)cc32)c1
509 µg/mL (≈ 985 µM) | > 100 µM | > 100 µM | 0.375 µM | – | 2.29 µM | 0.65 | 3.17 ×10⁻⁶ cm/s | COc1ccc(Cl)cc1S(=O)(=O)N1COc2c(C)cc(C(=O)Nc3ccc(CC(=O)O)cc3)cc21
44 µg/mL (≈ 91.5 µM) | > 100 µM | > 100 µM | 0.294 µM | – | 13 µM | 0.06 | 1.48 ×10⁻⁶ cm/s | COc1ccc(Cl)cc1CN1C(=O)OCc2ccc(C(=O)Nc3ccc(CC(=O)O)cc3)cc21
25 µg/mL (≈ 46 µM) | > 100 µM | > 100 µM | 0.331 µM | – | 1.87 µM | 1.83 | 1.36 ×10⁻⁶ cm/s | COc1ccc(Cl)cc1CN1C(=O)OC(C)(C)c2ccc(C(=O)Nc3ccc(CC(=O)O)c(Cl)c3)cc21
> 549 µg/mL | > 100 µM | > 100 µM | 0.0614 µM | – | 1.44 µM | 0.02 | 2.48 ×10⁻⁶ cm/s | COc1ccc(Cl)cc1S(=O)(=O)N(C)c1cccc(C(=O)Nc2nc(CC(=O)O)cs2)c1
26 µg/mL (≈ 49.6 µM) | > 100 µM | > 100 µM | 0.0505 µM | – | 0.423 µM | -0.01 | 1.62 ×10⁻⁶ cm/s | COc1ccc(Cl)cc1S(=O)(=O)N1CCOc2ccc(C(=O)Nc3nc(CC(=O)O)cs3)cc21
43 µg/mL (≈ 122 µM) | > 100 µM | > 100 µM | 2.55 µM | – | > 100 µM | 2.51 | 7.12 ×10⁻⁶ cm/s | O=C(NCc1ccccc1)[C@H]1CCCCN1C(=O)COc1ccccc1
521 µg/mL (≈ 1000 µM) | > 100 µM | > 100 µM | 0.0162 µM | 0.0301 µM | – | -0.02 | 0.14 ×10⁻⁶ cm/s | COc1ccc(Cl)cc1S(=O)(=O)N1CC(C(=O)O)Oc2ccc(C(=O)Nc3cccc(F)c3)cc21 (stereo unspecified)

The next lines start with the compound.

SMILES | solubility kinetic [1] | IC50 [2] | IC50 [3] | IC50 [4] | IC50 [5] | IC50 [6] | logD [7] | Papp [8]
O=C(COc1ccccc1)N1CCCC[C@@H]1c1noc(-c2cc(Cl)nnc2O)n1 | > 509 µg/mL | 23 µM | > 100 µM | 0.122 µM | 0.63 µM | 72.9 µM | 1.84 | 6.21 ×10⁻⁶ cm/s
CCc1ccc(CCOc2ccc(CC3SC(=O)NC3=O)cc2)nc1 (stereo unspecified) [PIOGLITAZONE] | < 1 µg/mL | > 100 µM | > 100 µM | > 10 µM | – | > 100 µM | 4 | 7.49 ×10⁻⁶ cm/s
O=C(c1nc([C@H]2CCCCN2C(=O)COc2ccccc2)no1)N1CCOCC1 | > 467 µg/mL | 34.2 µM | > 100 µM | 0.315 µM | – | > 100 µM | 1.47 | 8.06 ×10⁻⁶ cm/s
CN(Cc1ccccc1)C(=O)[C@H]1CCCCN1C(=O)COc1ccccc1 | 112 µg/mL (≈ 306 µM) | 2.67 µM | 6.84 µM | 1.94 µM | – | > 100 µM | 2.62 | 9.1 ×10⁻⁶ cm/s
CN(CCOc1ccc(CC2SC(=O)NC2=O)cc1)c1ccccn1 (stereo unspecified) [ROSIGLITAZONE] | 92 µg/mL (≈ 257 µM) | > 100 µM | > 100 µM | > 10 µM | – | > 100 µM | 2.49 | 7.65 ×10⁻⁶ cm/s
O=C1CCC(=O)N1c1cccc(-c2n[nH]c([C@H]3CCCCN3C(=O)COc3ccccc3)n2)c1 | 172 µg/mL (≈ 373 µM) | 21.4 µM | 63.5 µM | 0.127 µM | – | > 100 µM | 1.51 | 3.3 ×10⁻⁶ cm/s
